From patent US12208071B2, “Glucagon receptor antagonists” (LIGAND PHARMACEUTICALS INCORPORATED, priority 2018, dated 2025)
Read-outs that look alike come from different tables or passages of the source.

Tests used:
Type in all cases: physicochemical
[1] = Accelerated stability (ICH), 40° C./75% RH; details: for Appearance / Assay (anhydrous w/w %) / Chiral purity (area %) / Individual related substance (area %, w/w), RRT 0.46 / Individual related substance (area %, w/w), RRT 0.64 / Individual related substance (area %, w/w), RRT 1.26 / Purity (area %) / Total related substances (area %, w/w) / Water content (%) / XRPD: 40° C./75% RH
Procedure: Polymorph Form A was manufactured under Good Manufacturing Practices (GMP)-compliant conditions at a scale of 1.26 kg. The container closure for the batch consisted of double-lined low density polyethylene bags placed inside fiberboard drums, and the batch was on ICH stability under storage conditions of 25° C./60% relative humidity (RH) and 40° C./75% RH. Long-term stability data through the 36-month interval and accelerated stability data through the 6-month interval are shown in Tables 2 and 3.
Stability samples were tested according to the protocol (Table 5) and to the same specification as the drug substance. The available stability data for samples stored at 25° C./60% RH and 40° C./75% RH are summarized.

[2] = pKa measurement (Sirius T3, pH-metric and UV-metric); details: pH-metric (MeOH, DMSO, Dioxane co-solvent) and UV-metric (DMSO) methods, pH 1.0 to pH 11.0
Procedure: There are two methods available on the Sirius T3 for pKa measurement: potentiometric titration and spectroscopic (UV) titration.
Potentiometric Titration Method is a method which works for any ionicable compound and its standard working range is pH 3.0 to pH 11.0. […] Where this cannot be achieved, the use of organic co-solvents to enhance the solubility is employed.
Its available pH range is typically between 0.5 and 13.5. A compound concentration of 50 μM is typically used, i.e., ten fold lower than the pH-metric method. Co-solvent determination may also be performed when the assayed compounds remain insoluble under all other conditions.
When co-solvent solutions had been employed by pH-metric method or UV-metric method, the psKa values are extrapolated to zero percent organic content using the Yasuda-Shedlovsky extrapolation procedure, which yields extrapolated aqueous pKa values and slope information which can be used to ascertain the acidic/basic characteristics of the ionisable groups.
About 1 mg of Polymorph Form A was weighed into a sample vial, about 1.5 mL of co-solvent (60v % DMSO, 80v % MeOH or 60v % Dioxane) was added into the vial manually, then titrated with acid or base to obtain a psKa value with co-solvent and water, and extrapolated to get aqueous pKa value. Tables 7-9 below and FIGS. 7A-9B provide the results of pKa determination by pH metric method. […]

[3] = Log P/D by shake-flask method (1-octanol/buffer, HPLC); details: for logD: 1-octanol/buffer
Procedure: First, a sample stock solution of Polymorph Form A (100 mmol/L in DMSO) was prepared. 20 μL each of sample DMSO stock solutions was added into 4 ml-vials, then dispensed into 990 μL of 1-octanol-saturated buffer at varied pH and 990 μL of buffer-saturated 1-octanol, vortexed for 3 min and shaken for 1 hr at […], then centrifuged at 2500 rpm for 2 min to get rid of bubbles in the solutions. Finally, buffer-layer sample and 1-octanol-layer sample were separated, and then buffer-layer sample and 1-octanol-layer sample was injected into HPLC, integrated the chromatography and calculated the sample concentrations ratio in both buffer and 1-octanol phase. The Log P/D result was obtained by following equation: […]
The Log P/D value of Polymorph Form A was acquired by shake-flask method using a HPLC system. Since the concentrations of Polymorph Form A in buffer layer are too low to analyze, based on the comparison of blank and standard solution (S/N=5), 0.05 μmol/L was used in buffer layer to calculate Log D.

- water content ([1]; 40° C./75% RH after the 2-month interval, stabilized level): approximately 10%
- Appearance ([1]; 0 months): White
- Assay (anhydrous w/w %) ([1]; 0 months): 101.3 w/w %
- Chiral purity (area %) ([1]; 0 months): 99.9 area %
- Individual related substance (area %, w/w), RRT 0.46 ([1]; 0 months): 0.08 area %, w/w
- Individual related substance (area %, w/w), RRT 0.64 ([1]; 0 months): 0.12 area %, w/w
- Individual related substance (area %, w/w), RRT 1.26 ([1]; 0 months): 0.05 area %, w/w
- Purity (area %) ([1]; 0 months): 99.8 area %
- Total related substances (area %, w/w) ([1]; 0 months): 0.25 area %, w/w
- Water content (%) ([1]; 0 months): 2.1%
- Appearance ([1]; 1 month): White
- Assay (anhydrous w/w %) ([1]; 1 month): 102.0 w/w %
- Chiral purity (area %) ([1]; 1 month): 99.8 area %
- Individual related substance (area %, w/w), RRT 0.46 ([1]; 1 month): 0.08 area %, w/w
- Individual related substance (area %, w/w), RRT 0.64 ([1]; 1 month): 0.11 area %, w/w
- Individual related substance (area %, w/w), RRT 1.26 ([1]; 1 month): 0.05 area %, w/w
- Purity (area %) ([1]; 1 month): 99.8 area %
- Total related substances (area %, w/w) ([1]; 1 month): 0.24 area %, w/w
- Water content (%) ([1]; 1 month): 8.1%
- Appearance ([1]; 2 months): White
- Assay (anhydrous w/w %) ([1]; 2 months): 103.4 w/w %
- Chiral purity (area %) ([1]; 2 months): 99.8 area %
- Individual related substance (area %, w/w), RRT 0.46 ([1]; 2 months): 0.08 area %, w/w
- Individual related substance (area %, w/w), RRT 0.64 ([1]; 2 months): 0.12 area %, w/w
- Individual related substance (area %, w/w), RRT 1.26 ([1]; 2 months): 0.06 area %, w/w
- Purity (area %) ([1]; 2 months): 99.7 area %
- Total related substances (area %, w/w) ([1]; 2 months): 0.26 area %, w/w
- Water content (%) ([1]; 2 months): 9.8%
- Appearance ([1]; 3 months): White
- Assay (anhydrous w/w %) ([1]; 3 months): 103.4 w/w %
- Chiral purity (area %) ([1]; 3 months): 100.0 area %
- Individual related substance (area %, w/w), RRT 0.46 ([1]; 3 months): 0.08 area %, w/w
- Individual related substance (area %, w/w), RRT 0.64 ([1]; 3 months): 0.11 area %, w/w
- Individual related substance (area %, w/w), RRT 1.26 ([1]; 3 months): 0.05 area %, w/w
- Purity (area %) ([1]; 3 months): 99.8 area %
- Total related substances (area %, w/w) ([1]; 3 months): 0.24 area %, w/w
- Water content (%) ([1]; 3 months): 10.0%
- XRPD ([1]; 3 months): Same form
- Appearance ([1]; 6 months): White
- Assay (anhydrous w/w %) ([1]; 6 months): 103.7 w/w %
- Chiral purity (area %) ([1]; 6 months): 100.0 area %
- Individual related substance (area %, w/w), RRT 0.46 ([1]; 6 months): 0.08 area %, w/w
- Individual related substance (area %, w/w), RRT 0.64 ([1]; 6 months): 0.12 area %, w/w
- Individual related substance (area %, w/w), RRT 1.26 ([1]; 6 months): 0.05 area %, w/w
- Purity (area %) ([1]; 6 months): 99.8 area %
- Total related substances (area %, w/w) ([1]; 6 months): 0.25 area %, w/w
- Water content (%) ([1]; 6 months): 10.0%
- XRPD ([1]; 6 months): Same form
- pKa [2]: could not be detected
- logD ([3]; pH 1.5, read-out: Log D Rep.1): > 4.32
- logD ([3]; pH 7.4, read-out: Log D Rep.1): > 4.32
- logD ([3]; pH 1.0, read-out: Log D Rep.1): > 4.32
- logD ([3]; pH 2.0, read-out: Log D Rep.1): > 4.32
- logD ([3]; pH 3.0, read-out: Log D Rep.1): > 4.32
- logD ([3]; pH 4.0, read-out: Log D Rep.1): > 4.32
- logD ([3]; pH 11.0, read-out: Log D Rep.1): > 4.32
- logD ([3]; pH range of 1.0 to 11.0, read-out: Log D values): > 4.32
- Log D Average ([3]; pH 1.0): >4.32
- Log D Rep.2 ([3]; pH 1.0): >4.32
- Log D Average ([3]; pH 1.5): >4.32
- Log D Rep.2 ([3]; pH 1.5): >4.32
- Log D Average ([3]; pH 2.0): >4.32
- Log D Rep.2 ([3]; pH 2.0): >4.32
- Log D Average ([3]; pH 3.0): >4.32
- Log D Rep.2 ([3]; pH 3.0): >4.32
- Log D Average ([3]; pH 4.0): >4.32
- Log D Rep.2 ([3]; pH 4.0): >4.32
- Log D Average ([3]; pH 7.4): >4.32
- Log D Rep.2 ([3]; pH 7.4): >4.32
- Log D Average ([3]; pH 11.0): >4.32
- Log D Rep.2 ([3]; pH 11.0): >4.32
Structure (SMILES): Cc1cc(C)c(-c2ccc(NC(=O)[C@H](Cc3ccc(C(=O)NCCS(=O)(=O)[O-])cc3)c3ccc(-c4ccc(C(C)(C)C)cc4)cc3)cc2)c(C)c1.[Na+] [Polymorph Form A, Sodium (R)-2-(4-(2-(4′-(tert-butyl)-[1,1′-biphenyl]-4-yl)-3-oxo-3-((2′,4′,6′-trimethyl-[1,1′-biphenyl]-4-yl)amino)propyl)benzamido)ethane-1-sulfonate]
